Experimental data published in patent US20060264508A1, “Modulation of ocular growth and myopia by gaba drugs” (priority 2001, published 2006).
Where “and” joins values, the source holds several entries; their conditions need not be identical. Identical values can stand only once. Entries after “also recorded” stand apart in the source; their conditions may differ. Counter-ions that a name gives are not always drawn. Like-named read-outs stand apart in the source and are kept apart here.

Experiments:
[1] = system: goggled eyes (form-deprivation myopia); conditions: daily intravitreal injection, result in words
[2] = system: non-goggled eyes; format: in vivo, White leghorn chicks; conditions: for Equatorial diameter (calipers) / axial length calipers / axial length ultrasound / refraction / vitreous chamber depth (ultrasound): daily intravitreal dose(s) at which drug-treated differ from contralateral vehicle-treated eyes (P<0.05, Tukey test); for effect on lens thickness / anterior chamber depth, drug-treated vs vehicle-treated eyes: primary outcome comparison
Excerpt: Chicks were anesthetized with inhalation ether for all goggle applications and drug injections. The experimental eye was the right eye in half of the chicks, and the left eye in the other half of the chicks, assigned in an alternating order within each group. Form-deprivation myopia was induced by attaching a unilateral translucent white plastic goggle to the periorbital feathers with cyanoacrylate glue. All research conformed with the ARVO Resolution on the Use of Animals in Ophthalmic and Vision Research.
All goggle applications and/or drug injections began when the chicks reached one week of age. At about four hours into the light phase, a 10 μl intravitreal injection of either drug+vehicle or vehicle alone was given under aseptic conditions to the goggled or experimental non-goggled eye, with all contralateral eyes concurrently receiving vehicle injections.
On this day, the animals received no intraocular injections. […] While still under general anesthesia, the chicks were decapitated; and the axial and equatorial dimensions of enucleated eyes were measured with digital calipers. As the coronal profile of the chick eye is elliptical, the equatorial dimension was reported as the mean of the shortest and longest equatorial dimensions.
For goggled chicks, the primary measure of outcome was the drug effect on the ocular response to wearing a goggle, and comparisons of individual doses to each other and to vehicle-treated controls for each drug. Differences in refraction and each size measurement between goggled and contralateral eyes were assessed by one-way analysis of variance (ANOVA). For non-goggled chicks, the primary outcome measure was comparison of drug-treated to contralateral vehicle-treated eyes using a two-way repeated measures ANOVA (one factor replication, using eye as the replicated factor) for refractions and measurements.
The statistical outcomes with the two-way ANOVA are mainly described by the drug-treated to contralateral eye comparison. […] When the ANOVA assumptions of normality or equal variance were not met, the corresponding ANOVA on ranks was used. […] The Figures show the P values when the overall ANOVA reached a significance level of at least P<0.05, and the post-hoc tests for within group comparisons appear in the Tables that follow.

[3] = non-goggled eyes, drug-treated vs contralateral vehicle-treated eyes, result in words
[4] = non-goggled chicks receiving the 10 μg dose, mean±S.E.M.
[5] = non-goggled chicks, 10 μg dose, mean±S.E.M.
[6] = non-goggled chicks, contralateral vehicle-treated eyes
[7] = non-goggled chicks, drug-treated eyes
[8] = non-goggled eyes, result in words
[9] = non-goggled eyes, drug-treated vs contralateral vehicle-treated eyes, result in words, listed as muscimol, hydrobromide

SMILES	effect on axial dimensions (axial length, vitreous chamber depth; ultrasound or calipers) of goggled eyes [1]	effect on myopic refraction of goggled eyes [1]	Equatorial diameter (calipers) ([2]; non-goggled eyes)	axial length calipers ([2]; non-goggled eyes)	axial length ultrasound ([2]; non-goggled eyes)	refraction ([2]; non-goggled eyes)	vitreous chamber depth (ultrasound) ([2]; non-goggled eyes)	effect on axial growth / axial length and vitreous chamber depth of non-goggled eyes [2, 3]	effect on refraction of non-goggled eyes [2, 3]	overall effect on form-deprivation myopia (refraction and size measurements) of goggled eyes [1]	effect on equatorial diameter of non-goggled eyes [2, 3]	effect on equatorial diameter / equatorial expansion of goggled eyes (calipers) [1]	other results
NCC(O)(CS(=O)(=O)O)c1ccc(Cl)cc1 (centres unmarked) [2OH-saclofen, 2-hydroxysaclofen]	none of the tendencies of either drug to reduce ocular dimensions by ultrasound or calipers reached statistical significance	reduced the myopic refractions											
NC[C@H](CC(=O)O)c1ccc(Cl)cc1 [Baclofen, R(+)-baclofen]	neither the ultrasound nor the caliper measurements revealed statistically significant growth inhibition	partially reduced the myopic refractive error	n.s. (n.s., P ≧ 0.05 by ANOVA)	* (P < 0.05 by ANOVA for drug-treated vs. contralateral eyes, but no specific pair-wise comparison identified by the Tukey test.)	n.s. (n.s., P ≧ 0.05 by ANOVA)	n.s. (n.s., P ≧ 0.05 by ANOVA)	100 µg	modest deepening of the vitreous chamber	None of the other effects of baclofen on the non-goggled eyes, including refractions (data not shown), reached statistical significance	weak anti-myopia effect			
NC/C=C\C(=O)O [CACA, cis-4-aminocrotomc acid]	not accompanied by any statistically identifiable changes in axial measurements	modest, perhaps biphasic effect	n.s. (n.s., P ≧ 0.05 by ANOVA)	n.s. (n.s., P ≧ 0.05 by ANOVA)	50 µg	n.s. (n.s., P ≧ 0.05 by ANOVA)	n.s. (n.s., P ≧ 0.05 by ANOVA)	slightly stimulated axial length by ultrasound; also recorded: stimulate axial growth to a modest degree	not affecting refraction; also recorded: without altering refraction	none of the size measurements were altered	without altering refraction or affecting equatorial diameter	no change in the equatorial dimension	anterior chamber depth of contralateral vehicle-treated eyes [2, 4]: 1.31±0.03 mm; lens thickness of contralateral vehicle-treated eyes [2, 4]: 2.22±0.02 mm; anterior chamber depth of drug-treated eyes [2, 5]: 1.32±0.03 mm; lens thickness of drug-treated eyes [2, 5]: 2.22±0.02 mm; lens thinner in contralateral vehicle-treated eyes at 10 μg than in the other two cohorts (100 or 200 μg) [2, 6]: 0.10 mm; anterior chambers deeper at the 10 μg dose than at the higher doses ([2]; non-goggled chicks, drug- and vehicle-treated eyes, vs 50, 100 or 200 μg): 0.08-0.14 mm; lens thinner in drug-treated eyes at 10 μg than at the 100 or 200 μg doses [2, 7]: 0.16 mm; effect on lens thickness / anterior chamber depth, drug-treated vs vehicle-treated eyes [2, 8]: did not affect lens thickness or anterior chamber depth
CCOC(OCC)P(=O)(O)CCCN [CGP35348, (3-aminopropyl)(diethoxy-methyl)phosphinic acid]										no statistical effect			
NCCCP(=O)(O)CC1CCCCC1 [CGP46381, (3-aminopropyl)(cyclo-hexylmethyl)phosphinic acid]	inhibited the myopic refractive shift, the axial and vitreous chamber elongation	inhibited the myopic refractive shift	n.s. (n.s., P ≧ 0.05 by ANOVA)	n.s. (n.s., P ≧ 0.05 by ANOVA)	n.s. (n.s., P ≧ 0.05 by ANOVA)		100 µg	slightly enhanced vitreous chamber length	did not exert statistically identifiable changes	potent anti-myopia effects; also recorded: inhibiting myopia and limiting axial vitreous chamber and equatorial expansion	did not exert statistically identifiable changes	inhibited the myopic refractive shift, the axial and vitreous chamber elongation, and the equatorial expansion	lens thickness of contralateral vehicle-treated eyes [2, 4]: 2.26±0.03 mm; lens thickness of drug-treated eyes [2, 5]: 2.27±0.04 mm; lens thicker in vehicle-treated eyes at 10 μg than at the 100 μg dose [2, 6]: 0.06 mm; lens thicker in drug-treated eyes at 10 μg than at the 100 μg dose [2, 7]: 0.07 mm; effect on lens thickness / anterior chamber depth, drug-treated vs vehicle-treated eyes [2, 8]: no influence on lens thickness
NCc1cc(=O)[nH]o1 [Muscimol, Muscimol hydrobromide]										did not affect refraction, ultrasound or caliper measurements			refraction of contralateral vehicle-treated eyes ([2]; non-goggled chicks, 5 μg daily dose to the other eye, mean±S.E.M.): 0.86±0.58 D; refraction of contralateral vehicle-treated eyes ([2]; non-goggled chicks, 10 μg daily dose to the other eye, mean±S.E.M.): +0.11±0.82 D; refraction of contralateral vehicle-treated eyes ([2]; non-goggled chicks, 50 μg daily dose to the other eye, mean±S.E.M.): 1.78±1.21 D; refraction of contralateral vehicle-treated eyes ([2]; non-goggled chicks, 200 μg daily dose to the other eye, mean±S.E.M.): 3.82±0.83 D; dose of maximum effect on refraction (shift to myopia) of non-goggled eyes ([2]; non-goggled eyes, daily intravitreal injection): 50 µg; effect on refraction of non-goggled eyes ([2]; non-goggled eyes, drug-treated vs contralateral vehicle-treated eyes, result in words, hydrobromide): induces a statistically significant myopic shift in refraction; effect on axial growth / axial length and vitreous chamber depth of non-goggled eyes [2, 9]: stimulated axial growth as measured by either ultrasound or calipers, and deepened the vitreous chamber; also recorded: increasing not only axial and vitreous chamber lengths; effect on equatorial diameter of non-goggled eyes [2, 9]: increased the equatorial diameter; also recorded: expanding the equatorial diameter; effect on refraction of non-goggled eyes [2, 9]: shifted the refraction to myopia; also recorded: statistically significant shift in refraction
CC1(C)CO[C@@H](CC(=O)O)CN1 [SCH50911, (+)-(2S)-5,5-dimethyl-2-morpholineacetic acid]	none of the tendencies of either drug to reduce ocular dimensions by ultrasound or calipers reached statistical significance	reduced the myopic refractions											
NC/C=C/C(=O)O [TACA, Trans-4-aminocrotonic acid]										no statistically significant effects			overall effect on refraction and ocular size / eye growth of non-goggled eyes [2, 3]: influenced neither refraction nor ocular size measurements
CP(=O)(O)C1=CCNCC1 [TPMPA, (1,2,5,6-tetraliydro-pyridine-4-yl) methyiphosphinic acid]	blocked the axial and vitreous chamber elongation as measured by ultrasound; also recorded: effects on axial growth as measured by calipers, did not reach statistical significance; also recorded: significantly reduces the axial length of the eye and vitreous chamber depth	reduced the myopic refraction; also recorded: largely eliminates the myopic refractive shift		200 & μg and 100 μg	10 µg	§ (P < 0.05 by ANOVA for overall dose effect, but no significant effect identified for drug-treated vs. contralateral eyes; no specific pairwise comparison identified by the Tukey test.)	* (P < 0.05 by ANOVA for drug-treated vs. contralateral eyes, but no specific pair-wise comparison identified by the Tukey test.)	stimulated both axial growth and vitreous chamber length; also recorded: stimulates axial elongation and vitreous chamber depth	slight myopic refractive shift; also recorded: without altering refraction	potent anti-myopia effects	reduced the equatorial diameter; also recorded: equatorial dimension actually diminished	blocked the axial and vitreous chamber elongation as measured by ultrasound, and the equatorial expansion	
